Laboratory results as given in patent publication US20170100489A1, “POLYETHYLENE GLYCOL-MODIFIED INTEGRIN BLOCKER HM-3 AND USE THEREOF” (HANMEI XU, priority 2012, published 2017).
Marks after values point to notes of the source that are not given here. Where no end group is shown, it is not given here. mPEG‑SC20k = methoxy polyethylene glycol-succinimidyl-carbonate, 20000 Da

What was measured:
[1] = tested on: sarcoma HT-1080 xenograft tumors; assay: Tumor growth inhibition, HT-1080 xenograft; conditions: 36.7 mg/kg
Description: Tumor diameter was measured with a vernier caliper. […] After administration, all mice were sacrificed. Stripped the tumors and weighed.

[2] = tested on: human lung cancer H460 xenograft tumors; assay: Tumor growth inhibition, H460 xenograft; conditions: for Rate of inhibiting tumors / Tumor weight: Once 3 days
Description: (§1) Picked the tumor tissue of vigorous growth and was cut into pieces of about 1.5 mm^3. Under sterile conditions, the tumor tissue was inoculated subcutaneously on the right of nude mice. Tumor diameter was measured with a vernier caliper. The animals which had tumors with a size of 100-200 mm^3 were randomly divided into groups. The effect of polypeptide on anti-tumor was dynamically observed through the method of measuring tumor diameter. The times of measuring tumor diameter were once 2 days, and meantime, weighed mice. The mice in experimental group were infused polypeptide through tail vein, once 3 days. The mice in the placebo group were injected saline with the same volume. Tumor volume formula:
(§2) a, b respectively represent the length and width. According to the result of measurement, calculate the relative tumor volume. Evaluation of antitumor activity is relative tumor proliferation rate T/C(%). The formula is as follows: T/C(%)^=TRTV/CRTV×100%
TRTV: Treatment group RTV; CRTV: negative control group RTV

[3] = tested on: human kidney cancer A498 xenograft tumors; assay: Tumor growth inhibition, A498 xenograft; conditions: for Rate of inhibiting tumors / Tumor weight: Once 3 days
Description: Human kidney cancer A498 cell lines in logarithmic growth phase were picked and made into 5×10^7/ml cell suspension of under sterile conditions, and then 0.1 ml suspension was inoculated subcutaneously at the right armpit of nude mice. Tumor diameter was measured with a vernier caliper. The animals which had tumors with a size of 100-200 mm^3 were randomly divided into groups. The effect of polypeptide on anti-tumor was dynamically observed through the method of measuring tumor diameter. The times of measuring tumor diameter were once 2 days, and meantime, weighed mice. The mice in experimental group were infused polypeptide through tail vein. The mice in the placebo group were injected saline with the same volume, once 1 day; Taxol group: 10 mg/kg, once 1 week; Endostar group: 2.5 mg/kg, once 1 day; The groups of high, intermediate and low polypeptide: 6, 3, 1.5 mg/kg, respectively, once 1 day. After administration, all mice were sacrificed. Stripped the tumors and weighed.

[4] = tested on: human endometrial cancer HHUA xenograft tumors; assay: Tumor growth inhibition, HHUA xenograft; conditions: for Rate of inhibiting tumors / Tumor weight: Once 3 days
Description: Human endometrial cancer HHUA cell lines in logarithmic growth phase were picked, and made into 5×10^7/ml cell suspension of under sterile conditions, and then 0.1 ml suspension was inoculated subcutaneously at the right armpit of nude mice. Tumor diameter was measured with a vernier caliper. The animals which had tumors with a size of 100-200 mm^3 were randomly divided into groups. The effect of polypeptide on anti-tumor was dynamically observed through the method of measuring tumor diameter. The times of measuring tumor diameter were once 2 days, and meantime, weighed mice. The mice in experimental group were infused polypeptide through tail vein. The mice in the placebo group were injected saline with the same volume, once 1 day; Taxol group: 10 mg/kg, once 1 week; Endostar group: 2.5 mg/kg, once 1 day; The groups of high, intermediate and low polypeptide: 6, 3, 1.5 mg/kg, respectively, once 1 day. After administration, all mice were sacrificed. Stripped the tumors and weighed.

[5] = tested on: human cervical cancer HeLa xenograft tumors; assay: Tumor growth inhibition, HeLa xenograft; conditions: for Rate of inhibiting tumors / Tumor weight: Once 3 days
Description: Human cervical cancer HeLa cell lines in logarithmic growth phase were picked, and made into 5×10^7/ml cell suspension of under sterile conditions, and then 0.1 ml suspension was inoculated subcutaneously at the right armpit of nude mice. Tumor diameter was measured with a vernier caliper. The animals which had tumors with a size of 100-200 mm^3 were randomly divided into groups. The effect of polypeptide on anti-tumor was dynamically observed through the method of measuring tumor diameter. The times of measuring tumor diameter were once 2 days, and meantime, weighed mice. The mice in experimental group were infused polypeptide through tail vein. The mice in the placebo group were injected saline with the same volume, once 1 day; Taxol group: 10 mg/kg, once 1 week; Endostar group: 2.5 mg/kg, once 1 day; The groups of high, intermediate and low polypeptide: 6, 3, 1.5 mg/kg, respectively, once 1 day. After administration, all mice were sacrificed. Stripped the tumors and weighed.

[6] = tested on: human testicular cancer 5637 xenograft tumors; assay: Tumor growth inhibition, 5637 xenograft; conditions: for Rate of inhibiting tumors / Tumor weight: Once 3 days
Description: Human testicular cancer 5637 cell lines in logarithmic growth phase were picked, and made into 5×10^7/ml cell suspension of under sterile conditions, and then 0.1 ml suspension was inoculated subcutaneously at the right armpit of nude mice. Tumor diameter was measured with a vernier caliper. The animals which had tumors with a size of 100-200 mm^3 were randomly divided into groups. The effect of polypeptide on anti-tumor was dynamically observed through the method of measuring tumor diameter. The times of measuring tumor diameter were once 2 days, and meantime, weighed mice. The mice in experimental group were infused polypeptide through tail vein. […] After administration, all mice were sacrificed. Stripped the tumors and weighed.

[7] = tested on: human colon cancer HT-29 xenograft tumors; assay: Tumor growth inhibition, HT-29 xenograft; conditions: for Rate of inhibiting tumors / Tumor weight: Once 3 days
Description: Human colon cancer HT-29 cell lines in logarithmic growth phase were picked, and made into 5×10^7/ml cell suspension of under sterile conditions, and then 0.1 ml suspension was inoculated subcutaneously at the right armpit of nude mice. Tumor diameter was measured with a vernier caliper. The animals which had tumors with a size of 100-200 mm^3 were randomly divided into groups. The effect of polypeptide on anti-tumor was dynamically observed through the method of measuring tumor diameter. The times of measuring tumor diameter were once 2 days, and meantime, weighed mice. The mice in experimental group were infused polypeptide through tail vein. The mice in the placebo group were injected saline with the same volume, once 1 day; Taxol group: 10 mg/kg, once 1 week; Endostar group: 2.5 mg/kg, once 1 day; The groups of high, intermediate and low polypeptide: 6, 3, 1.5 mg/kg, respectively, once 1 day. After administration, all mice were sacrificed. Stripped the tumors and weighed.

[8] = tested on: human thyroid cancer SW-579 xenograft tumors; assay: Tumor growth inhibition, SW-579 xenograft; conditions: for Rate of inhibiting tumors / Tumor weight: Once 3 day
Description: as §1, §2
TRTV: Treatment Group RTV; CRTV: Negative Control Group RTV

[9] = tested on: human gallbladder cancer GBC-SD xenograft tumors; assay: Tumor growth inhibition, GBC-SD xenograft; conditions: for Rate of inhibiting tumors / Tumor weight: Once 3 day
Description: Human gallbladder cancer GBC-SD cell lines in logarithmic growth phase were picked and made into 5×10^7/ml cell suspension of under sterile conditions, and then 0.1 ml suspension was inoculated subcutaneously at the right armpit of nude mice. Tumor diameter was measured with a vernier caliper. The animals which had tumors with a size of 100-200 mm^3 were randomly divided into groups. The effect of polypeptide on anti-tumor was dynamically observed through the method of measuring tumor diameter. The times of measuring tumor diameter were once 2 days, and meantime, weighed mice. The mice in experimental group were infused polypeptide through tail vein. The mice in the placebo group were injected saline with the same volume, once 1 day; Taxol group: 10 mg/kg, once 1 week; Endostar group: 2.5 mg/kg, once 1 day; The groups of high, intermediate and low polypeptide: 6, 3, 1.5 mg/kg, respectively, once 1 day. After administration, all mice were sacrificed. Stripped the tumors and weighed.

[10] = tested on: human prostate cancer DU-145 xenograft tumors; assay: Tumor growth inhibition, DU-145 xenograft; conditions: for Rate of inhibiting tumors / Tumor weight: Once 3 days
Description: Human prostate cancer DU-145 cell lines in logarithmic growth phase were picked, and made into 5×10^7/ml cell suspension of under sterile conditions, and then 0.1 ml suspension was inoculated subcutaneously at the right armpit of nude mice. Tumor diameter was measured with a vernier caliper. The animals which had tumors with a size of 100-200 mm^3 were randomly divided into groups. The effect of polypeptide on anti-tumor was dynamically observed through the method of measuring tumor diameter. The times of measuring tumor diameter were once 2 days, and meantime, weighed mice. The mice in experimental group were infused polypeptide through tail vein. The mice in the placebo group were injected saline with the same volume, once 1 day; Cisplatin group: 10 mg/kg, once 1 week; Endostar group: 2.5 mg/kg, once 1 day; The groups of high, intermediate and low polypeptide: 6, 3, 1.5 mg/kg, respectively, once 1 day. After administration, all mice were sacrificed. Stripped the tumors and weighed.

[11] = tested on: human pancreatic cancer SW-1990 xenograft tumors; assay: Tumor growth inhibition, SW-1990 xenograft; conditions: for Rate of inhibiting tumors / Tumor weight: Once 3 days
Description: Picked the tumor tissue of vigorous growth and was cut into pieces of about 1.5 mm^3. Under sterile conditions, the tumor tissue was inoculated subcutaneously on the right of nude mice. Tumor diameter was measured with a Vernier caliper. The animals which had tumors with a size of 100-200 mm^3 were randomly divided into groups. The effect of polypeptide on anti-tumor was dynamically observed through the method of measuring tumor diameter. The times of measuring tumor diameter were once 2 days, and meantime, weighed mice. The mice in experimental group were infused polypeptide through tail vein, once 3 days. The mice in the placebo group were injected saline with the same volume.
as §2
TRTV:Treatment group RTV; CRTV: negative control group RTV

[12] = tested on: human ovarian cancer SK-OV-3 xenograft tumors; assay: Tumor growth inhibition, SK-OV-3 xenograft; conditions: for Rate of inhibiting tumors / Tumor weight: Once 3 days
Description: Human ovarian cancer SK-OV-3 cell lines in logarithmic growth phase were picked, and made into 5×10^7/ml cell suspension of under sterile conditions, and then 0.1 ml suspension was inoculated subcutaneously at the right armpit of nude mice. Tumor diameter was measured with a vernier caliper. The animals which had tumors with a size of 100-200 mm^3 were randomly divided into groups. The effect of polypeptide on anti-tumor was dynamically observed through the method of measuring tumor diameter. The times of measuring tumor diameter were once 2 days, and meantime, weighed mice. The mice in experimental group were infused polypeptide through tail vein. The mice in the placebo group were injected saline with the same volume, once 1 day; Cisplatin group: 10 mg/kg, once 1 week; Endostar group: 2.5 mg/kg, once 1 day; The groups of high, intermediate and low polypeptide: 6, 3, 1.5 mg/kg, respectively, once 1 day. After administration, all mice were sacrificed. Stripped the tumors and weighed.

[13] = Pharmacokinetics of mPEG-SC20k-HM-3 and HM-3 in rats (plasma concentration by ELISA); conditions: SD rats, intravenous
Description: SD rats were randomly divided into six groups with the same number for male and female. Take three groups were administered intravenously integrin antagonist polypeptide with a high dose of 52 mg/kg (equivalent to HM-3 4.2 mg/kg), an intermediate dose of 26 mg/kg (equivalent to HM-3 2.1 mg/kg), a low-dose of 13 mg/kg (equivalent to HM-3 1.05 mg/kg). The other 3 groups were injected HM-3 with a high dose of 4.2 mg/kg, an intermediate dose of 2.1 mg/kg, a low doses of 1.05 mg/kg. Collected whole blood 0.5 ml once from the orbital venous plexus after 0.5 h, 1 h, 2 h, 3 h, 6 h, 12 h, 24 h, 48 h, 72 h, 96 h, 108 h, 132 h of drug administration, and applied heparin to get the effect of anti-coagulation. 12000 rpm/2 min centrifuged plasma. Draw supernatant 200 μl and 80° C. preheated PBS (0.05 M pH7.4) buffer 600 μl and mixed. Bath in the 80° C. water for 30 min. Centrifuged 2 min at 12000 rpm, and collected the supernatant, and stored in the condition of −20° C. Dissolved at room temperature, measured integrin antagonist peptide plasma concentration by ELISA.

[14] = high, 36.7 mg/kg, listed as polypeptide
[15] = intermediate, 18.75 mg/kg, listed as polypeptide
[16] = low, 9.38 mg/kg, listed as polypeptide

mPEG-SC20k-Ile-Val-Arg-Arg-Ala-Asp-Arg-Ala-Ala-Val-Pro-Gly-Gly-Gly-Gly-Arg-Gly-Asp ({mPEG‑SC20k}-IVRRADRAAVPGGGGRGD) [mPEG-SC20k-HM-3]
Rate of inhibiting tumors ([1]; Once 3 days): 65.04%* | Tumor weight ([1]; Once 3 days): 0.678 g | Rate of inhibiting tumors ([1]; Once 3 days, listed as polypeptide): 65.04% | inhibition of tumor growth compared with negative control ([1]; P<0.05): significant inhibition role | inhibition of tumor growth compared with negative control ([2]; 36.7 mg/kg, P<0.05): significant inhibition role | Rate of inhibiting tumors ([2]; high, 36.7 mg/kg): 66.45%* | Tumor weight ([2]; high, 36.7 mg/kg): 0.266 g | Rate of inhibiting tumors [2, 14]: 66.45% | Rate of inhibiting tumors ([2]; intermediate, 18.75 mg/kg): 55.37% | Tumor weight ([2]; intermediate, 18.75 mg/kg): 0.354 g | Rate of inhibiting tumors [2, 15]: 55.37% | Rate of inhibiting tumors ([2]; low, 9.38 mg/kg): 54.28% | Tumor weight ([2]; low, 9.38 mg/kg): 0.363 g | Rate of inhibiting tumors [2, 16]: 54.28% | inhibition of tumor growth compared with negative control ([3]; 36.7 mg/kg, P<0.05): significant inhibition role | Rate of inhibiting tumors ([3]; high, 36.7 mg/kg): 55.11%* | Tumor weight ([3]; high, 36.7 mg/kg): 0.424 g | Rate of inhibiting tumors [3, 14]: 55.11% | Rate of inhibiting tumors ([3]; intermediate, 18.75 mg/kg): 46.95% | Tumor weight ([3]; intermediate, 18.75 mg/kg): 0.501 g | Rate of inhibiting tumors [3, 15]: 46.95% | Rate of inhibiting tumors ([3]; low, 9.38 mg/kg): 39.00% | Tumor weight ([3]; low, 9.38 mg/kg): 0.576 g | Rate of inhibiting tumors [3, 16]: 39.00% | inhibition of tumor growth compared with negative control ([4]; 36.7 mg/kg, P<0.05): significant inhibition role | Rate of inhibiting tumors ([4]; high, 36.7 mg/kg): 62.47%* | Tumor weight ([4]; high, 36.7 mg/kg): 0.453 g | Rate of inhibiting tumors [4, 14]: 62.47% | Rate of inhibiting tumors ([4]; intermediate, 18.75 mg/kg): 53.65% | Tumor weight ([4]; intermediate, 18.75 mg/kg): 0.560 g | Rate of inhibiting tumors [4, 15]: 53.65% | Rate of inhibiting tumors ([4]; low, 9.38 mg/kg): 51.38% | Tumor weight ([4]; low, 9.38 mg/kg): 0.587 g | Rate of inhibiting tumors [4, 16]: 51.38% | inhibition of tumor growth compared with negative control ([5]; 36.7 mg/kg, P<0.05): significant inhibition role | Rate of inhibiting tumors ([5]; high, 36.7 mg/kg): 82.07%* | Tumor weight ([5]; high, 36.7 mg/kg): 0.222 g | Rate of inhibiting tumors [5, 14]: 82.07% | Rate of inhibiting tumors ([5]; intermediate, 18.75 mg/kg): 74.11% | Tumor weight ([5]; intermediate, 18.75 mg/kg): 0.320 g | Rate of inhibiting tumors [5, 15]: 74.11% | Rate of inhibiting tumors ([5]; low, 9.38 mg/kg): 63.32% | Tumor weight ([5]; low, 9.38 mg/kg): 0.453 g | Rate of inhibiting tumors [5, 16]: 63.32% | inhibition of tumor growth compared with negative control ([6]; 36.7 mg/kg, P<0.05): significant inhibition role | Rate of inhibiting tumors ([6]; high, 36.7 mg/kg): 60.20%* | Tumor weight ([6]; high, 36.7 mg/kg): 0.802 g | Rate of inhibiting tumors [6, 14]: 60.20% | Rate of inhibiting tumors ([6]; intermediate, 18.75 mg/kg): 51.32% | Tumor weight ([6]; intermediate, 18.75 mg/kg): 0.981 g | Rate of inhibiting tumors [6, 15]: 51.32% | Rate of inhibiting tumors ([6]; low, 9.38 mg/kg): 50.99% | Tumor weight ([6]; low, 9.38 mg/kg): 0.988 g | Rate of inhibiting tumors [6, 16]: 50.99% | inhibition of tumor growth compared with negative control ([7]; 36.7 mg/kg, P<0.05): significant inhibition role | Rate of inhibiting tumors ([7]; high, 36.7 mg/kg): 55.98%* | Tumor weight ([7]; high, 36.7 mg/kg): 0.493 g | Rate of inhibiting tumors [7, 14]: 55.98% | Rate of inhibiting tumors ([7]; intermediate, 18.75 mg/kg): 45.45% | Tumor weight ([7]; intermediate, 18.75 mg/kg): 0.611 g | Rate of inhibiting tumors [7, 15]: 45.45% | Rate of inhibiting tumors ([7]; low, 9.38 mg/kg): 37.05% | Tumor weight ([7]; low, 9.38 mg/kg): 0.705 g | Rate of inhibiting tumors [7, 16]: 37.05% | inhibition of tumor growth compared with negative control ([8]; 36.7 mg/kg, P<0.05): significant inhibition role | toxic and side effects ([8]; 36.7 mg/kg, compared with positive 5-Fu group): no obvious toxic and side effects | Rate of inhibiting tumors ([8]; high, 36.7 mg/kg): 67.63%* | Tumor weight ([8]; high, 36.7 mg/kg): 0.406 g | Rate of inhibiting tumors [8, 14]: 67.63% | Rate of inhibiting tumors ([8]; intermediate, 18.75 mg/kg): 60.56% | Tumor weight ([8]; intermediate, 18.75 mg/kg): 0.494 g | Rate of inhibiting tumors [8, 15]: 60.56% | Rate of inhibiting tumors ([8]; low, 9.38 mg/kg): 58.42% | Tumor weight ([8]; low, 9.38 mg/kg): 0.521 g | Rate of inhibiting tumors [8, 16]: 58.42% | inhibition of tumor growth compared with negative control ([9]; 36.7 mg/kg, P<0.05): significant inhibition role | Rate of inhibiting tumors ([9]; high, 36.7 mg/kg): 61.45%* | Tumor weight ([9]; high, 36.7 mg/kg): 0.409 g | Rate of inhibiting tumors [9, 14]: 61.45% | Rate of inhibiting tumors ([9]; intermediate, 18.75 mg/kg): 50.59% | Tumor weight ([9]; intermediate, 18.75 mg/kg): 0.524 g | Rate of inhibiting tumors [9, 15]: 50.59% | Rate of inhibiting tumors ([9]; low, 9.38 mg/kg): 40.32% | Tumor weight ([9]; low, 9.38 mg/kg): 0.633 g | Rate of inhibiting tumors [9, 16]: 40.32% | inhibition of tumor growth compared with negative control ([10]; 36.7 mg/kg, P<0.05): significant inhibition role | Rate of inhibiting tumors ([10]; high, 36.7 mg/kg): 77.46%* | Tumor weight ([10]; high, 36.7 mg/kg): 0.417 g | Rate of inhibiting tumors [10, 14]: 77.46% | Rate of inhibiting tumors ([10]; intermediate, 18.75 mg/kg): 67.48% | Tumor weight ([10]; intermediate, 18.75 mg/kg): 0.603 g | Rate of inhibiting tumors [10, 15]: 67.48% | Rate of inhibiting tumors ([10]; low, 9.38 mg/kg): 57.87% | Tumor weight ([10]; low, 9.38 mg/kg): 0.781 g | Rate of inhibiting tumors [10, 16]: 57.87% | inhibition of tumor growth compared with negative control ([11]; 36.7 mg/kg, P<0.05): significant inhibition role | Rate of inhibiting tumors ([11]; high, 36.7 mg/kg): 67.76%* | Tumor weight ([11]; high, 36.7 mg/kg): 0.446 g | Rate of inhibiting tumors [11, 14]: 67.76% | Rate of inhibiting tumors ([11]; intermediate, 18.75 mg/kg): 64.55% | Tumor weight ([11]; intermediate, 18.75 mg/kg): 0.491 g | Rate of inhibiting tumors [11, 15]: 64.55% | Rate of inhibiting tumors ([11]; low, 9.38 mg/kg): 50.40% | Tumor weight ([11]; low, 9.38 mg/kg): 0.687 g | Rate of inhibiting tumors [11, 16]: 50.40% | inhibition of tumor growth compared with negative control ([12]; 36.7 mg/kg, P<0.05): significant inhibition role | Rate of inhibiting tumors ([12]; high, 36.7 mg/kg): 50.40%* | Tumor weight ([12]; high, 36.7 mg/kg): 0.627 g | Rate of inhibiting tumors [12, 14]: 50.40% | Rate of inhibiting tumors ([12]; intermediate, 18.75 mg/kg): 44.62% | Tumor weight ([12]; intermediate, 18.75 mg/kg): 0.700 g | Rate of inhibiting tumors [12, 15]: 44.62% | Rate of inhibiting tumors ([12]; low, 9.38 mg/kg): 42.33% | Tumor weight ([12]; low, 9.38 mg/kg): 0.730 g | Rate of inhibiting tumors [12, 16]: 42.33% | CL [13]: 7.1 mL/h/kg
